Test results published in PubChem BioAssay AID330 (DTP/NCI, 2004).
“And” between values parts separate entries of the source, which are not always exact repeats. Identical values can stand only once. Inconclusive results and toxic doses are left out.

Tested on: P388 leukemia ip, CD2F1 mice, survival T/C
Test: NCI In Vivo Anticancer Drug Screen. Data for tumor model P388 Leukemia (intraperitoneal) in CD2F1 (CDF1) mice
Conditions: endpoint: median survival time, higher = longer survival
How it was run: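 Mice carrying the transplanted tumor received test compound or vehicle. Survival was recorded in each group, and the value is the treated-group measurement divided by that of the vehicle-treated control group.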

[1] = dose: 100.0 mg/kg/injection, schedule: Q04DX002 (ip), vehicle: saline with Tween-80
[2] = dose: 200.0 mg/kg/injection, schedule: Q04DX002 (ip), vehicle: saline with Tween-80
[3] = dose: 50.0 mg/kg/injection, schedule: Q04DX003 (ip), vehicle: saline
[4] = dose: 60.0 mg/kg/injection, schedule: Q01DX005 (ip), vehicle: saline with Tween-80
[5] = dose: 120.0 mg/kg/injection, schedule: Q01DX005 (ip), vehicle: saline with Tween-80
[6] = dose: 60.0 mg/kg/injection, schedule: Q01DX005 (ip), vehicle: Klucel (hydroxypropylcellulose) (HPC)
[7] = dose: 120.0 mg/kg/injection, schedule: Q01DX005 (ip), vehicle: Klucel (hydroxypropylcellulose) (HPC)
[8] = dose: 240.0 mg/kg/injection, schedule: Q01DX005 (ip), vehicle: Klucel (hydroxypropylcellulose) (HPC)
[9] = dose: 100.0 mg/kg/injection, schedule: Q04DX003 (ip), vehicle: saline
[10] = dose: 50.0 mg/kg/injection, schedule: Q01DX005 (ip), vehicle: saline with Tween-80
[11] = dose: 100.0 mg/kg/injection, schedule: Q01DX005 (ip), vehicle: saline with Tween-80
[12] = dose: 200.0 mg/kg/injection, schedule: Q01DX005 (ip), vehicle: saline with Tween-80

O=C(NC(=O)c1cccc2ccccc12)NC(=S)c1ccc(Br)cc1
T/C (dose: 12.5 mg/kg/injection, schedule: Q01DX001 (ip), vehicle: saline): 101 % of control | T/C (dose: 25.0 mg/kg/injection, schedule: Q01DX001 (ip), vehicle: saline): 101 % of control | T/C (dose: 50.0 mg/kg/injection, schedule: Q01DX001 (ip), vehicle: saline): 101 % of control

N=C(N)N1CCNc2ccc(Cl)cc2C1
T/C [1]: 96 % of control | T/C [2]: 91 % of control

Cc1c(-c2ccccc2)oc(=O)c(Cl)c1N(C)c1ccccc1
T/C (dose: 100.0 mg/kg/injection, schedule: Q01DX001 (ip), vehicle: saline with Tween-80): 94 % of control | T/C (dose: 200.0 mg/kg/injection, schedule: Q01DX001 (ip), vehicle: saline with Tween-80): 99 % of control | T/C (dose: 400.0 mg/kg/injection, schedule: Q01DX001 (ip), vehicle: saline with Tween-80): 91 % of control

COCC12CCC(OC)C34C5CC6(O)C(OC)CC(OC(C)=O)(C5C6OC(=O)c5ccccc5)C(C(OC)C13)C4N(C)C2 (centres undefined)
T/C (dose: 0.31 mg/kg/injection, schedule: Q01DX009 (ip), vehicle: saline): 106 % of control | T/C (dose: 0.62 mg/kg/injection, schedule: Q01DX009 (ip), vehicle: saline): 101 % of control | T/C (dose: 1.25 mg/kg/injection, schedule: Q01DX009 (ip), vehicle: saline): 110 % of control | T/C (dose: 2.5 mg/kg/injection, schedule: Q01DX009 (ip), vehicle: saline): 102 % of control | T/C (dose: 5.0 mg/kg/injection, schedule: Q01DX009 (ip), vehicle: saline): 108 % of control

COn1nnc2ccccc21
T/C (dose: 50.0 mg/kg/injection, schedule: Q01DX009 (ip), vehicle: saline with Tween-80): 99 % of control | T/C (dose: 100.0 mg/kg/injection, schedule: Q01DX009 (ip), vehicle: saline with Tween-80): 104 % of control | T/C (dose: 200.0 mg/kg/injection, schedule: Q01DX009 (ip), vehicle: saline with Tween-80): 92 % of control

CC(=O)OC1CC(C)(O)Cc2cc3c(c(O)c21)C(=O)c1c(O)cc2c(c1C3=O)OC1OC2(C)C(O)C(N(C)C)C1O (centres undefined)
T/C (dose: 3.5 mg/kg/injection, schedule: Q01DX009 (ip), vehicle: other): 153 % of control | T/C (dose: 7.0 mg/kg/injection, schedule: Q01DX009 (ip), vehicle: other): 166 % of control | T/C (dose: 14.0 mg/kg/injection, schedule: Q01DX009 (ip), vehicle: other): 167 % of control

CC(=O)c1ccc2c(c1)N(CCCN1CCN(CCO)CC1)c1ccccc1S2
T/C (dose: 1.56 mg/kg/injection, schedule: Q01DX009 (ip), vehicle: saline): 116 % of control | T/C (dose: 3.12 mg/kg/injection, schedule: Q01DX009 (ip), vehicle: saline): 103 % of control | T/C (dose: 6.25 mg/kg/injection, schedule: Q01DX009 (ip), vehicle: saline): 107 % of control | T/C (dose: 6.25 mg/kg/injection, schedule: Q04DX003 (ip), vehicle: saline): 91 % of control | T/C (dose: 12.5 mg/kg/injection, schedule: Q01DX009 (ip), vehicle: saline): 108 % of control | T/C (dose: 12.5 mg/kg/injection, schedule: Q04DX003 (ip), vehicle: saline): 103 % of control | T/C (dose: 25.0 mg/kg/injection, schedule: Q01DX009 (ip), vehicle: saline): 106 % of control | T/C (dose: 25.0 mg/kg/injection, schedule: Q04DX003 (ip), vehicle: saline): 107 % of control | T/C (dose: 50.0 mg/kg/injection, schedule: Q01DX009 (ip), vehicle: saline): 109 % of control | T/C [3]: 119 % of control

C=C(C)[C@H]1CN[C@H](C(=O)O)[C@H]1CC(=O)O
T/C (dose: 0.62 mg/kg/injection, schedule: Q01DX005 (ip), vehicle: saline): 98 % of control | T/C (dose: 1.25 mg/kg/injection, schedule: Q01DX005 (ip), vehicle: saline): 92 % of control | T/C (dose: 2.5 mg/kg/injection, schedule: Q01DX005 (ip), vehicle: saline): 99 % of control and 92 % of control | T/C (dose: 5.0 mg/kg/injection, schedule: Q01DX005 (ip), vehicle: saline): 93 % of control and 96 % of control | T/C (dose: 10.0 mg/kg/injection, schedule: Q01DX005 (ip), vehicle: saline): 99 % of control and 101 % of control | T/C (dose: 20.0 mg/kg/injection, schedule: Q01DX005 (ip), vehicle: saline): 100 % of control and 116 % of control | T/C (dose: 40.0 mg/kg/injection, schedule: Q01DX005 (ip), vehicle: saline): 105 % of control

COC(=O)CCC(=O)C(C#N)c1ccc(Cl)c(Cl)c1 (centres undefined)
T/C [4]: 101 % of control | T/C [5]: 101 % of control

COc1cc(C2c3cc4c(cc3OC3(N5CCCC5)CCCC23)OCO4)cc(OC)c1OC (centres undefined)
T/C [6]: 96 % of control | T/C [7]: 97 % of control | T/C [8]: 96 % of control

O=C(O)C(=O)O.OO.OO.OO.[Nb]
T/C (dose: 100.0 mg/kg/injection, schedule: Q01DX009 (ip), vehicle: saline): 123 % of control | T/C [9]: 100 % of control

N#CC(COC(=O)c1ccccc1)OC(=O)c1ccccc1 (centres undefined)
T/C [10]: 91 % of control | T/C [11]: 95 % of control | T/C [12]: 86 % of control

O=C(NC(CSSCC(NC(=O)c1ccc([N+](=O)[O-])cc1)C(=O)O)C(=O)O)c1ccc([N+](=O)[O-])cc1 (centres undefined)
T/C [10]: 108 % of control | T/C [11]: 101 % of control | T/C [12]: 109 % of control

COC(=O)/C=C(\Br)C(=O)OC
T/C (dose: 1.56 mg/kg/injection, schedule: Q01DX009 (ip), vehicle: saline with Tween-80): 106 % of control | T/C (dose: 3.12 mg/kg/injection, schedule: Q01DX009 (ip), vehicle: saline with Tween-80): 98 % of control | T/C (dose: 6.25 mg/kg/injection, schedule: Q01DX009 (ip), vehicle: saline with Tween-80): 101 % of control

CC(=O)N(C)c1ccc(N)c2c1C(=O)c1ccccc1C2=O
T/C (dose: 50.0 mg/kg/injection, schedule: Q01DX005 (ip), vehicle: Klucel (hydroxypropylcellulose) (HPC)): 106 % of control | T/C (dose: 100.0 mg/kg/injection, schedule: Q01DX005 (ip), vehicle: Klucel (hydroxypropylcellulose) (HPC)): 94 % of control | T/C (dose: 200.0 mg/kg/injection, schedule: Q01DX005 (ip), vehicle: Klucel (hydroxypropylcellulose) (HPC)): 106 % of control

COc1cc2c(cc1OC)C(C)P(C)(=O)CC2O (centres undefined)
T/C [1]: 100 % of control | T/C (dose: 100.0 mg/kg/injection, schedule: Q04DX002 (ip), vehicle: saline): 109 % of control | T/C [2]: 107 % of control | T/C (dose: 200.0 mg/kg/injection, schedule: Q04DX002 (ip), vehicle: saline): 98 % of control | T/C (dose: 400.0 mg/kg/injection, schedule: Q04DX002 (ip), vehicle: saline with Tween-80): 100 % of control | T/C (dose: 400.0 mg/kg/injection, schedule: Q04DX002 (ip), vehicle: saline): 98 % of control

CC1(C)CC(=N/O)/C(=N/O)C(=N\NC(N)=S)/C1
T/C [4]: 97 % of control | T/C [5]: 94 % of control | T/C (dose: 240.0 mg/kg/injection, schedule: Q01DX005 (ip), vehicle: saline with Tween-80): 97 % of control

S=C(Oc1ccccc1)SSC(=S)Oc1ccccc1
T/C (dose: 25.0 mg/kg/injection, schedule: Q04DX003 (ip), vehicle: saline with Tween-80): 114 % of control | T/C (dose: 50.0 mg/kg/injection, schedule: Q04DX003 (ip), vehicle: saline with Tween-80): 104 % of control | T/C (dose: 100.0 mg/kg/injection, schedule: Q04DX003 (ip), vehicle: DMSO): 90 % of control | T/C (dose: 100.0 mg/kg/injection, schedule: Q04DX003 (ip), vehicle: saline with Tween-80): 96 % of control | T/C (dose: 200.0 mg/kg/injection, schedule: Q04DX003 (ip), vehicle: saline with Tween-80): 107 % of control

Cc1ncc([N+](=O)[O-])n1CCSC(N)=O
T/C [3]: 102 % of control and 105 % of control | T/C [9]: 102 % of control and 114 % of control | T/C (dose: 200.0 mg/kg/injection, schedule: Q04DX003 (ip), vehicle: saline): 100 % of control and 114 % of control | T/C (dose: 400.0 mg/kg/injection, schedule: Q04DX003 (ip), vehicle: saline): 100 % of control and 120 % of control

CCCC1c2c(ccc3c2OCO3)CC[N+]1(C)CCN(CC)CC (centres undefined)
T/C (dose: 6.25 mg/kg/injection, schedule: Q01DX005 (ip), vehicle: saline with Tween-80): 109 % of control | T/C (dose: 12.5 mg/kg/injection, schedule: Q01DX005 (ip), vehicle: saline with Tween-80): 98 % of control | T/C (dose: 25.0 mg/kg/injection, schedule: Q01DX005 (ip), vehicle: saline with Tween-80): 100 % of control and 105 % of control

CCC1=Nc2ccccc2C(c2ccccc2)NC1=O (centres undefined)
T/C [6]: 97 % of control | T/C [7]: 100 % of control | T/C [8]: 94 % of control
